In one test the target is T1, holo-CRBP1 (Homo sapiens, UniProt P09455).
T1 construct: made in house
T1 sequence (P09455 1-135): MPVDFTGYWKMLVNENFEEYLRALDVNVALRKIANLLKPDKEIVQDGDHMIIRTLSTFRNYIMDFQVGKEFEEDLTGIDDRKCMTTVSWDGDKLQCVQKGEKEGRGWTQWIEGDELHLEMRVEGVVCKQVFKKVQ
The experiment in a line: Retinol replacement assay with repurification and LC/MS. The format is binding. On the procedure:
holo-CRBP1 (500 μg) in 0.5 mL (67 μM) was incubated with tested compound (1:2 molar ratio) delivered in ethanol in 20 mM Tris/HCl, pH 8.0, 200 mM NaCl, 5% glycerol (v/v) at RT for 15 min. The sample was then diluted with 10 mM Tris/HCl, pH 8.0 to the final volume of 5 mL, loaded onto HiTrap Q HP column, and eluted as described above. The elution profiles were monitored at both 280 and 325 nm to concurrently record signals for the protein and the retinoid moieties.
After incubation of apo- or holo-CRBP1 with abn-CBD, the protein was repurified on HiTrap Q HP column as described above. The protein fractions were collected, pooled together, and concentrated to 0.25 mL in an Amicon Ultra-4 centrifugal filter, cutoff 10,000 Da. For quantification purpose, 100 pmol of 3d-abn-CBD (internal standard) were added to the protein samples. To extract organic compounds associated with the repurified CRBP1, 0.25 mL of ethanol was added followed by 4 mL of hexane. […] Abn-CBD and its deuterated derivative were detected in the selected reaction monitoring (SRM) mode using m/z 315.2→221.2 and 318.2→224.1 transitions, respectively. Calibration curves were calculated based on the linear relationship between areas under SRM ion intensity for peaks corresponding to abn-CBD and the internal standard versus molar ratios of these compounds in a range from 20 to 500 pmol.

A further test concerns the target T2, CRBP4 (Homo sapiens, UniProt Q96R05).
T2 construct: thrombin cut site (residual residues after digestion) (C); 6x histidine tag (C, cleaved yes); made in house; host or cells: E. coli BL21 (DE3) (as for CRBP2)
T2 sequence (Q96R05 1-134): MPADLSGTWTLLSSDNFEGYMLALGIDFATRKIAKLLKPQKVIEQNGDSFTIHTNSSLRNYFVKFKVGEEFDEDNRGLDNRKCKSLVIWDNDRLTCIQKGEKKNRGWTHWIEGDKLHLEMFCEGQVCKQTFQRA
Description: Crystal structure of CRBP4 in complex with abn-CBD. The note with it: crystal structure PDB No. 6E6K. The format is binding. An excerpt:
The cDNA of human CRBP4 was purchased from Origene Technologies. The introduction of a thrombin cut site at the C-terminus was achieved by PCR amplification of the cDNA. The PCR product was subcloned into pET30b vector. For the most part, CRBP4 was expressed and purified as described for CRBP2. However, after digestion with thrombin and reloading onto HisTrap column, the unbound fraction of the protein was further purified on a HiTrap SP HP ion exchanger column (GE Healthcare). CRBP4 was loaded in 10 mM Tris/HCl buffer, pH 8.0 buffer, and subsequently eluted with a gradient of NaCl (0-0.5 M) over 30 min at a flow rate 1.0 mL min^−1. Purified CRBP4 was concentrated to 6 mg mL^−1 and liquated at −80° C.
Crystals of CRBP1 in complex abn-CBD and its derivatives (abn-CBDO or CBDO) were grown essentially as described by Silvaroli et al (ACS Chem Biol. 2019, 15; 14(3)). The apo protein at 3 mg mL-1 was preincubated with 300 μM of a ligand in 10 mM Tris-HCl buffer, pH 8.0, 150 mM NaCl for 15 min on ice. This sample (1 μL) was mixed in 1:1 ratio with a crystallization solution composed of 0.1 M BisTris, pH 5.5, and 25% poly(ethylene glycol) (PEG) 3350 (w/v). […]

For a further test, the target named is cannabinoid receptor 1 (Homo sapiens, UniProt P21554). The note with it: cited from earlier work.

The text below walks through data of US20210228500A1, “CELLULAR RETINOID BINDING PROTEIN ANTAGONISTS AND USES THEREOF” (CASE WESTERN RESRVE UNIVERSITY, priority 2018, published 2021).

Structures are written as SMILES. “Also recorded” adds a separate entry of the source.

Sequence of cannabinoid receptor 1 (P21554 whole entry, species assumed): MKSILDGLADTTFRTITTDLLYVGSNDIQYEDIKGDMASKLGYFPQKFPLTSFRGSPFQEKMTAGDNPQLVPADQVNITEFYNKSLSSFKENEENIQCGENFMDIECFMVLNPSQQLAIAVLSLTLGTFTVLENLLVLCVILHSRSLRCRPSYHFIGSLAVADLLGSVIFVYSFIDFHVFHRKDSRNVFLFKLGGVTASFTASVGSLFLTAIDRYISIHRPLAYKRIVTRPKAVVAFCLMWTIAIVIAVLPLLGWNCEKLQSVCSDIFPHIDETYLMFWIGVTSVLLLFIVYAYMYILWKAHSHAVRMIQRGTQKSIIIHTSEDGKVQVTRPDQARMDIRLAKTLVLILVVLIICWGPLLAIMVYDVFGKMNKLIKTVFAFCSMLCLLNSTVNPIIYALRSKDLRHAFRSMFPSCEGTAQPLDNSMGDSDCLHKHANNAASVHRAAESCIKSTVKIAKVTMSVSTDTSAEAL

Take `C=C(C)[C@@H]1CCC(C)=C[C@H]1c1c(O)cc(O)cc1CCCCC` [abn-CBD, 4-[(1R,6R)-3-Methyl-6-prop-1-en-2-ylcyclohex-2-en-1-yl]-5-pentylbenzene-1,3-diol]: at holo-CRBP1 (holo-CRBP1 incubated with compound 1:2 molar ratio, repurified), the “loss of atROL from holo-CRBP1 (absorbance at 325 nm)” value was “diminished absorbance at 325 nm; also recorded: depletion of atROL”. Besides, the “replacement of atROL by ligand (ligand/protein quantification)” value on holo-CRBP1 (holo-CRBP1 with 2 molar excess of abn-CBD, LC/MS) is “proportional replacement of the retinoid by the cannabinoid”. For the same molecule, the “binding to CRBP4” value at CRBP4 was “bind abn-CBD similarly to CRBP1”. For the same molecule, the “interaction with cannabinoid receptor 1” value on cannabinoid receptor 1 was “does not interact”.
